Experimental data reported in patent US9617240B2 (TEIJIN PHARMA LIMITED, priority 2013, dated 2017).

Target: T1, oxidase type xanthine oxidase (derived from buttermilk) (Bos taurus, UniProt P80457)
T1 construct: oxidase type xanthine oxidase (derived from buttermilk, supplied by Calbiochem Novabiochem Corp.); purchased Calbiochem Novabiochem Corp; host or cells: buttermilk (natural source)
Assay: Xanthine oxidase inhibitory activity (absorbance change at 290 nm)
Format: biochemical
Details: xanthine substrate, 100 mM phosphate buffer, absorbance at 290 nm for 5 minutes; read-out: Inhibitory Activity (50% inhibitory concentration with respect to oxidase type xanthine oxidase)
Protocol: The xanthine oxidase inhibitory activity was measured for the compounds synthesized according to the above Examples.
After a test compound was dissolved in DMSO (manufactured by Sigma Co.) so that the concentration is 20 mM, the test compound was prepared and used at a desired concentration at the time of use.
The evaluation of the xanthine oxidase inhibitory activity of the compounds of the present invention was conducted by partially modifying the method described in the literature (Method Enzymatic Analysis, 1, 521-522, 1974). The present evaluation is based on the oxidase type xanthine oxidase inhibitory activity evaluation. That is, a xanthine (manufactured by Sigma Co.) solution prepared at 10 mM in advance using a 20 mM sodium hydroxide solution was adjusted to 30 μM using a 100 mM phosphate buffer solution, and 75 μL/well of each solution was added into a 96-well plate. Aliquots (1.5 μL/well) of each test sample, which was diluted with DMSO so that the concentration is 100 times the final concentration, were added into a 96-well plate, and after mixing, the absorbance at 290 nm was measured by a microplate reader SPECTRA MAX Plus 384 (manufactured by Molecular Devices, LLC). Subsequently, oxidase type xanthine oxidase (derived from buttermilk, supplied by Calbiochem Novabiochem Corp.) was prepared at 30.6 mU/mL using a 100 mM phosphate buffer solution and 73.5 μL/well of each solution was added. Immediately after mixing, the change in absorbance at 290 nm was measured for 5 minutes. The enzyme activity when DMSO was used instead of a test compound solution was defined as 100%, the inhibitory rate of the test compounds was calculated and the 50% inhibitory concentration with respect to oxidase type xanthine oxidase was calculated by fitting to the dose-response curve.
Note that the symbols (+, ++, +++) in the table represent inhibitory activity values as shown below.

T1 sequence (P80457 whole entry): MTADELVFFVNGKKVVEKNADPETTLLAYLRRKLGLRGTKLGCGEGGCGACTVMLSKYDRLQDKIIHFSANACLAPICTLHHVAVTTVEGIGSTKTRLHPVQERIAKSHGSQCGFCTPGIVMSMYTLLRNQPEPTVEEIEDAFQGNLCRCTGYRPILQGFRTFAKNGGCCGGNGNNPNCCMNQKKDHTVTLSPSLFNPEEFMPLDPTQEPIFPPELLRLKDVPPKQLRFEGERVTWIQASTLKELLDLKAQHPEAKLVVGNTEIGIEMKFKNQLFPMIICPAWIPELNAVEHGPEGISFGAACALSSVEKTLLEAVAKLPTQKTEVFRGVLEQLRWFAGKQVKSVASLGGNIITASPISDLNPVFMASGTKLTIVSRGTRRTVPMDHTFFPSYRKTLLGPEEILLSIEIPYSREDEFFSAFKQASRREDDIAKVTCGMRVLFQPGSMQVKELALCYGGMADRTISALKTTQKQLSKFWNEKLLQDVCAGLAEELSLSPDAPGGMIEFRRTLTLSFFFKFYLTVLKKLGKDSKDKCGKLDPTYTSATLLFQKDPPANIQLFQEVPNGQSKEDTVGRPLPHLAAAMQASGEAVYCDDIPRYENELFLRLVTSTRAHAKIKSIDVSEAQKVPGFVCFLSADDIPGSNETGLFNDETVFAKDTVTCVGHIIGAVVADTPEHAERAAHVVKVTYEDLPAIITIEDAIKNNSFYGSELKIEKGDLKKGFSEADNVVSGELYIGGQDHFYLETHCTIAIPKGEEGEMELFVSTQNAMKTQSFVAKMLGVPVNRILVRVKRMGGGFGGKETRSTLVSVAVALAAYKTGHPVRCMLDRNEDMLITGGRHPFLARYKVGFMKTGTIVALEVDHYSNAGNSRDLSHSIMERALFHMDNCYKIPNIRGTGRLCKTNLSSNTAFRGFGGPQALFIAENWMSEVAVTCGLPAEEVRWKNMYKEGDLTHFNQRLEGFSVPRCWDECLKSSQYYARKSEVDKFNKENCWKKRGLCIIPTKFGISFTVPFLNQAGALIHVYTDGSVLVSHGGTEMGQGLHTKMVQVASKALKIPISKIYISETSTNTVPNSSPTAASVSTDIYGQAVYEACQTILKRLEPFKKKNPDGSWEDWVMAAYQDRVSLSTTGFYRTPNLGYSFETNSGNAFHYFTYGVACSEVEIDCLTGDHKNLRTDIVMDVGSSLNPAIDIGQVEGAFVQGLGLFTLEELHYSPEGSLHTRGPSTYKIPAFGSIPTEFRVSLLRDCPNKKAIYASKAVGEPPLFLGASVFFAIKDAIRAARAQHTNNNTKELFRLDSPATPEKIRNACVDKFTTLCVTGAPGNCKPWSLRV

Compound	IC50 [nM]
N#Cc1cc(-n2cc(C(=O)O)cn2)ncc1-c1ccc(OC(F)(F)F)cc1 [Compound 44, 1-{4-cyano-5-[4-(trifluoromethoxy)phenyl]pyridin-2-yl}-1H-pyrazole-4-carboxylic acid]	1 to 5
CN(C)c1ccc(-c2cnc(-n3cc(C(=O)O)cn3)cc2C#N)cn1 [Compound 59, 1-{4-cyano-5-[6-(dimethylamino)pyridin-3-yl]pyridin-2-yl}-1H-pyrazole-4-carboxylic acid]	1 to 5
COc1cccc(-c2cnc(-n3cc(C(=O)O)cn3)cc2C#N)c1 [Compound 13, 1-[4-cyano-5-(3-methoxyphenyl)pyridin-2-yl]-1H-pyrazole-4-carboxylic acid]	1 to 5
Cc1ccccc1-c1cnc(-n2cc(C(=O)O)cn2)cc1C#N [Compound 4, 1-[4-cyano-5-(2-methylphenyl)pyridin-2-yl]-1H-pyrazole-4-carboxylic acid]	5 to 10
Cc1cccc(-c2ccc(-n3cc(C(=O)O)cn3)nc2C#N)c1 [Compound 92, 1-[6-cyano-5-(3-methylphenyl)pyridin-2-yl]-1H-pyrazole-4-carboxylic acid]	≥ 10
N#Cc1cc(-n2cc(C(=O)O)c(N)n2)ncc1-c1ccccc1F [Compound 98, 3-amino-1-[4-cyano-5-(2-fluorophenyl)pyridin-2-yl]-1H-pyrazole-4-carboxylic acid]	1 to 5
N#Cc1cc(-n2cc(C(=O)O)cn2)ncc1-c1cccc(C(F)(F)F)c1 [Compound 45, 1-{4-cyano-5-[3-(trifluoromethyl)phenyl]pyridin-2-yl}-1H-pyrazole-4-carboxylic acid]	5 to 10
Cc1cc(-c2cnc(-n3cc(C(=O)O)cn3)cc2C#N)ccc1Cl [Compound 51, 1-[4-cyano-5-(4-chloro-3-methylphenyl)pyridin-2-yl]-1H-pyrazole-4-carboxylic acid]	1 to 5
N#Cc1cc(-n2cc(C(=O)O)cn2)ncc1-c1ccc(N2CCOCC2)cc1 [Compound 64, 1-{4-cyano-5-[4-(morpholine-4-yl)phenyl]pyridine-2-yl}-1H-pyrazole-4-carboxylic acid]	1 to 5
Cc1nn(-c2cc(C#N)c(-c3ccccc3)cn2)c(C)c1C(=O)O [Compound 28, 1-(4-cyano-5-phenylpyridin-2-yl)-3,5-dimethyl-1H-pyrazole-4-carboxylic acid]	≥ 10
COc1ccncc1-c1cnc(-n2cc(C(=O)O)cn2)cc1C#N [Compound 58, 1-[4-cyano-5-(4-methoxypyridin-3-yl)pyridin-2-yl]-1H-pyrazole-4-carboxylic acid]	≥ 10
N#Cc1cc(-n2cc(C(=O)O)cn2)cnc1-c1ccc(F)cc1F [Compound 77, 1-[5-cyano-6-(2,4-difluorophenyl)pyridin-3-yl]-1H-pyrazole-4-carboxylic acid]	≥ 10
COc1ccc(-c2cnc(-n3cc(C(=O)O)cn3)cc2C#N)cc1 [Compound 2, 1-[4-cyano-5-(4-methoxyphenyl)pyridin-2-yl]-1H-pyrazole-4-carboxylic acid]	1 to 5
N#Cc1cc(-n2cc(C(=O)O)cn2)ncc1-c1cccc(Cl)c1F [Compound 41, 1-[4-cyano-5-(3-chloro-2-fluorophenyl)pyridin-2-yl]-1H-pyrazole-4-carboxylic acid]	1 to 5
N#Cc1cc(-n2cc(C(=O)O)cn2)ncc1-c1ccc(N)cc1 [Compound 68, 1-[5-(4-aminophenyl)-4-cyanopyridine-2-yl]-1H-pyrazole-4-carboxylic acid]	1 to 5
Cc1cc(-c2ccc(-n3cc(C(=O)O)cn3)nc2C#N)ccc1F [Compound 94, 1-[6-cyano-5-(4-fluoro-3-methylphenyl)pyridin-2-yl]-1H-pyrazole-4-carboxylic acid]	≥ 10
CC(C)Oc1ccc(-c2cnc(-n3cc(C(=O)O)cn3)cc2C#N)cc1 [Compound 52]	1 to 5
N#Cc1nc(-n2cc(C(=O)O)cn2)ccc1-c1ccccc1 [Compound 85, 1-(6-cyano-5-phenylpyridin-2-yl)-1H-pyrazole-4-carboxylic acid]	≥ 10
Cc1ccc(-c2cnc(-n3cc(C(=O)O)cn3)cc2C#N)cc1 [Compound 14, 1-[4-cyano-5-(4-methylphenyl)pyridin-2-yl]-1H-pyrazole-4-carboxylic acid]	1 to 5

Next, values leading:

IC50 [nM]	Compound
1 to 5	1-[5-(4-acetophenyl)-4-cyanopyridin-2-yl]-1H-pyrazole-4-carboxylic acid [Compound 71]
1 to 5	N#Cc1cc(-n2cc(C(=O)O)cn2)ncc1-c1csc2ccccc12 [Compound 61, 1-[5-(1-benzothiophen-3-yl)-4-cyanopyridin-2-yl]-1H-pyrazole-4-carboxylic acid]
1 to 5	COc1cccc(-c2cnc(-n3cc(C(=O)O)c(N)n3)cc2C#N)c1 [Compound 102, 3-amino-1-[4-cyano-5-(3-methoxyphenyl)pyridin-2-yl]-1H-pyrazole-4-carboxylic acid]
1 to 5	N#Cc1cc(-n2cc(C(=O)O)cn2)ncc1-c1ccc(F)cc1 [Compound 29, 1-[4-cyano-5-(4-fluorophenyl)pyridin-2-yl]-1H-pyrazole-4-carboxylic acid]
≥ 10	Cc1cc(F)ccc1-c1cnc(-n2cc(C(=O)O)cn2)cc1C#N [Compound 49, 1-[4-cyano-5-(4-fluoro-2-methylphenyl)pyridin-2-yl]-1H-pyrazole-4-carboxylic acid]
1 to 5	N#Cc1cc(-n2cc(C(=O)O)c(N)n2)ncc1-c1ccc(Cl)cc1 [Compound 100, 3-amino-1-[4-cyano-5-(4-chlorophenyl)pyridin-2-yl]-1H-pyrazole-4-carboxylic acid]
1 to 5	N#Cc1cc(-n2cc(C(=O)O)cn2)ncc1-c1ccc(C(=O)c2ccccc2)cc1 [Compound 73, 1-[5-(4-benzoylphenyl)-4-cyanopyridin-2-yl]-1H-pyrazole-4-carboxylic acid]
1 to 5	CS(=O)(=O)Nc1ccc(-c2cnc(-n3cc(C(=O)O)cn3)cc2C#N)cc1 [Compound 69, 1-[4-cyano-5-(4-methanesulfonamidophenyl)pyridine-2-yl]-1H-pyrazole-4-carboxylic acid]
≥ 10	N#Cc1cc(-n2cc(C(=O)O)cn2)ncc1-c1cccnc1 [Compound 25, 1-[4-cyano-5-(pyridin-3-yl)pyridin-2-yl]-1H-pyrazole-4-carboxylic acid]
1 to 5	N#Cc1cc(-n2cc(C(=O)O)cn2)ncc1-c1ccsc1 [Compound 21, 1-[4-cyano-5-(thiophen-3-yl)pyridin-2-yl]-1H-pyrazole-4-carboxylic acid]
5 to 10	CN(C)c1cccc(-c2cnc(-n3cc(C(=O)O)cn3)cc2C#N)c1 [Compound 67, 1-{4-cyano-5-[3-(dimethylamino)phenyl]pyridine-2-yl}-1H-pyrazole-4-carboxylic acid]
1 to 5	CC(C)c1cccc(-c2cnc(-n3cc(C(=O)O)cn3)cc2C#N)c1 [Compound 48, 1-{4-cyano-5-[3-(propane-2-yl)phenyl]pyridine-2-yl}-1H-pyrazole-4-carboxylic acid]
5 to 10	COc1cccc(F)c1-c1cnc(-n2cc(C(=O)O)cn2)cc1C#N [Compound 18, 1-[4-cyano-5-(2-fluoro-6-methoxyphenyl)pyridin-2-yl]-1H-pyrazole-4-carboxylic acid]
≥ 10	CC(C)c1nn(-c2cc(C#N)c(-c3ccccc3)cn2)cc1C(=O)O [Compound 27, 1-(4-cyano-5-phenylpyridin-2-yl)-3-(propan-2-yl)-1H-pyrazole-4-carboxylic acid]
5 to 10	N#Cc1cc(-n2cc(C(=O)O)cn2)ncc1-c1cccc(Cl)c1 [Compound 12, 1-[4-cyano-5-(3-chlorophenyl)pyridin-2-yl]-1H-pyrazole-4-carboxylic acid]
1 to 5	N#Cc1cc(-n2cc(C(=O)O)cn2)ncc1-c1ccc(C(=O)O)cc1 [Compound 42, 1-[5-(4-carboxyphenyl)-4-cyanopyridin-2-yl]-1H-pyrazole-4-carboxylic acid]
1 to 5	N#Cc1cc(-n2cc(C(=O)O)cn2)ncc1-c1ccc(Cl)cc1 [Compound 15, 1-[4-cyano-5-(4-chlorophenyl)pyridin-2-yl]-1H-pyrazole-4-carboxylic acid]
1 to 5	Cc1cc(-c2cnc(-n3cc(C(=O)O)c(N)n3)cc2C#N)ccc1F [Compound 106, 3-amino-1-[4-cyano-5-(4-fluoro-3-methylphenyl)pyridin-2-yl]-1H-pyrazole-4-carboxylic acid]
5 to 10	COc1ccc(F)c(-c2ncc(-n3cc(C(=O)O)cn3)cc2C#N)c1 [Compound 84, 1-[5-cyano-6-(2-fluoro-5-methoxyphenyl)pyridin-3-yl]-1H-pyrazole-4-carboxylic acid]
1 to 5	N#Cc1cc(-n2cc(C(=O)O)cn2)ncc1-c1cccc(F)c1F [Compound 20, 1-[4-cyano-5-(2,3-difluorophenyl)pyridin-2-yl]-1H-pyrazole-4-carboxylic acid]
